For the assay, the target named is β-galactosidase (β-Gal) (Escherichia coli, UniProt P00722). The conditions noted are these: substrate of β-galactosidase, components mixed in a vial, 35 min incubation, 25° C., pH 7.2 phosphate buffer with 1 mM MgCl2, Michaelis-Menten equation.

Each structure is given as a SMILES string.

As a reminder, the Km is the concentration of substrate that gives half-maximal velocity.

Sequence of β-galactosidase (β-Gal) (P00722 2-1024): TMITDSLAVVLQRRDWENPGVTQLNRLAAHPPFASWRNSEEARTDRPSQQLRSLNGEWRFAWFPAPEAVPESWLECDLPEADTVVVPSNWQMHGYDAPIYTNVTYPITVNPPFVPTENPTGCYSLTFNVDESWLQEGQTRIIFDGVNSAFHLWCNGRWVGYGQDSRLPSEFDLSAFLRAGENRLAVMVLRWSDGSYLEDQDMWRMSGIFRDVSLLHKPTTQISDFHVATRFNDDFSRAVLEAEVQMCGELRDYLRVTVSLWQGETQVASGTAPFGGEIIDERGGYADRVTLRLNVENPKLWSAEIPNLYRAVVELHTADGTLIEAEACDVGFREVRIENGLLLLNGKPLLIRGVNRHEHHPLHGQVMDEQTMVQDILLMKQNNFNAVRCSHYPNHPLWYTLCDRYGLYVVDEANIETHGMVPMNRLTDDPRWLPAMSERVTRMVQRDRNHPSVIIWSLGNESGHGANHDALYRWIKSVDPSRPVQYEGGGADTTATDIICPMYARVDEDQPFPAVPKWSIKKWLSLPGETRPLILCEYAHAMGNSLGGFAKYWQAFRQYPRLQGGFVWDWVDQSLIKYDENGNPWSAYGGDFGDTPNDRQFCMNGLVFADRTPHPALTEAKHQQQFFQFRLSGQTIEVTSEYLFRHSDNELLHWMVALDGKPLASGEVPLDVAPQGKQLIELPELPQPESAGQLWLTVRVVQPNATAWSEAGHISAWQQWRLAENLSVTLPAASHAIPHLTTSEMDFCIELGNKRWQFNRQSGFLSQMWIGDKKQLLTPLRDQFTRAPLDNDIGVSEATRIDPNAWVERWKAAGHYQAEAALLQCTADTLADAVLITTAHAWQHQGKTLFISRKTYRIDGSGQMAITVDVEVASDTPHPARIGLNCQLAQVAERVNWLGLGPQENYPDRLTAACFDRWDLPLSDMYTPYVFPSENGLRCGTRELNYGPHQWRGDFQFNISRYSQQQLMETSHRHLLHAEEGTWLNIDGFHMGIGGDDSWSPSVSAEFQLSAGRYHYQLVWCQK
Protocol: β-galactosidase (β-Gal) (isolated from E. coli), fluorescein mono-β-D-galactopyranoside (FMG), and fluorescein sodium salt were purchased from Sigma-Aldrich (Oakville, ON, Canada). All other chemicals were from Sigma-Aldrich, Caledon, or BDH (Toronto, ON, Canada), and were of analytical grade. Stock solutions of 4.4 mM FMG and 5 nM β-Gal were prepared with 10 mM phosphate (pH 7.2) buffer containing 1 mM MgCl2, and stored at −80° C. The 10 nM phosphate (pH 7.2) buffer containing 1 mM MgCl2 was also used for enzyme reactions, and for capillary electrophoresis as a run buffer. […]
All capillary electrophoresis (CE) experiments were carried out with a P/ACE MDQ instrument equipped with a laser-induced fluorescent (LIF) detector (Beckman-Coulter; Fullerton Calif.). Fluorescence was excited by a 488-nm line of an argon-ion laser (5 mW). […]
6 μL of 1 μM FMG, 3 μL of 1 nM β-Gal, and 9 μL of 10 mM phosphate buffer containing 1 mM MgCl2 were mixed in a 200 μL reservoir. […] The reaction mixture was directly used for quantifying the amount of the product by CE. […] The identification and quantitative assay of products were preformed by the addition of fluorescein (internal reference) to the reaction mixture.
The Km and Kcat values were determined using an approach previously described by Berezovski et al. (Electrophoresis, 23:3398-403, 2002). […]

Consider `O=C1OC2(c3ccc(O)cc3Oc3cc(O[C@@H]4O[C@H](CO)[C@H](O)[C@H](O)[C@H]4O)ccc32)c2ccccc21` (stereo partly drawn) [fluorescein-mono-β-D-galactopyranoside, fluorescein mono-β-D-galactopyranoside], for which the “catalytic rate constant, kcat” value was determined as 0.6 s⁻¹. Also, the Km (read-out: Michaelis constant, Km) is 0.9 µM.

The values above are taken from patent publication US7666660B2, “Method for mixing inside a capillary and devices for achieving same” (priority 2005, dated 2010).
